Assay results published in patent US20260242359A1, “IRHOM2 INHIBITORS AND USES THEREOF” (NEW YORK SOCIETY FOR THE RELIEF OF THE RUPTURED AND …, priority 2023, published 2026).

System: PMA-induced release of endogenous IL-6R from human peripheral blood mononuclear cells (PBMCs)
Assay: Example 14: ELISA-based IL-6R release assay, PMA-induced, PBMCs from healthy donor
Format: cell-based
Conditions: 10 μM final concentration, PMA 25 ng/ml, delta Buffer stimulated vs unstimulated = 100% inhibition; for inhibition at 10 µM: Homo sapiens, PBMC
Experimental: In the following study, ELISA-based IL-6R release assays were performed to analyze the inhibitory effects of Compounds 1, 2, 3, 4, 5, and 7 on PMA-induced release of endogenous IL-6R from primary human material obtained from healthy donor using peripheral blood mononuclear cells (PBMCs). The ELISA-based IL-6R release assay that was used in this example is described below.
In brief, on day 1, Nunc black MaxiSorp® 96-well plates (Thermo Fisher Scientific, USA) were coated overnight with […] per well of mouse anti-human IL-6R capture antibody (provided as part of the DuoSet ELISA kit) at 2 μg/ml TBS at 4° C.
40,000 PBMCs from healthy donor (SciRhom GmbH, Germany) in 80 μl of normal growth medium were seeded in each well of Greiner CELLSTAR V-bottom 96-well plates (Greiner Bio-One, Germany) and pre-incubated with 20 μl per well of standard growth medium supplemented with Batimastat (BB94, Abcam, UK) at 50 μM as positive control (for a final concentration of 10 μM in the resulting 100 μl sample volume), compounds of the invention at 50 μM (for a final concentration of 10 μM in the resulting 100 μl sample volume) and in case of Buffer stimulated and unstimulated controls with DMSO (Carl Roth, Germany) at 50 μM (for a final concentration of 10 μM in the resulting 100 μl sample volume) at 37° C., 5% CO2 for 30 minutes. Subsequently, cells (except those for unstimulated controls) were stimulated with 20 μl per well of PMA (Sigma-Aldrich, USA) at 150 ng/ml in growth medium for a final concentration of 25 ng/ml at 37° C., 5% CO2 for 22 hours.
On day 2, the capture antibody solution was removed and MaxiSorp® plates were blocked with 300 μl per well of TBS, 1% BSA at room temperature for 2-3 hours. Meanwhile, the 96-well plates were centrifuged to pellet cells. In parallel, blocking buffer was removed from the MaxiSorp® plates and plates were washed 4 times with 350 μl TBS-T (Carl Roth, Germany) per well on a 96-head plate washer (Tecan Group, Switzerland). To avoid drying-up, 30 μl TBS were added to each well of the MaxiSorp® plates immediately, followed by the transfer of 70 μl cell-free supernatant per sample. Additionally, 100 μl recombinant human IL-6R protein (provided as part of the DuoSet ELISA kit) diluted in TBS at defined concentrations were added to the plate as standard references. Plates were incubated at room temperature for 2 hours. After 4 times washing with 350 μl TBS-T (Carl Roth, Germany) per well on a 96-head plate washer (Tecan Group, Switzerland) and careful removal of all buffer traces after the fourth cycle, 100 μl biotinylated goat anti-human IL-6R detection antibody (provided as part of the DuoSet ELISA kit) at 100 ng/ml TBS were added per well and, protected from direct light, plates were incubated at room temperature for 2 hours. After 4 times washing with 350 μl TBS-T (Carl Roth, Germany) per well on a 96-head plate washer (Tecan Group, Switzerland) and careful removal of all buffer traces after the fourth cycle, 100 μl streptavidin-AP (R&D Systems, USA) diluted 1:10,000 in TBS were added to each well and, again protected from direct light, plates were incubated at room temperature for 30 minutes. Following another round of 4 times washing with 350 μl TBS-T (Carl Roth, Germany) per well on a 96-head plate washer (Tecan Group, Switzerland) and careful removal of all buffer traces after the fourth cycle, 100 μl AttoPhos substrate solution (Promega, USA) per well was added for incubation in the dark at room temperature for 1 hour. Using an infinite M1000 (Tecan Group, Switzerland) microplate reader, the fluorescence of each well was collected at an excitation wavelength of 435 nm and an emission wavelength of 555 nm.
The delta between Buffer stimulated and Buffer unstimulated was defined 100% inhibition.

Row | Structure (SMILES) | inhibition of PMA-induced release of IL-6R from PBMCs from healthy donor (22 hours) | inhibition at 10 µM (22 h) | inhibition at 10 µM (22 hours)
1 | CNC(=O)[C@H](Cc1ccccc1)NC(=O)[C@H](CC(C)C)[C@H](CSc1cccs1)C(=O)NO [Batimastat, reference compound] | 98.5% | 100% | 
2 | CCC(=O)NCCc1c(/C=C2/C(=O)NC(=O)N(c3ccc(C)cc3C)C2=O)[nH]c2ccccc12 [Compound 1] |  |  | 112%
3 | CCOC(=O)c1ccc(Nc2nc3nonc3n3nnnc23)cc1 [Compound 2] |  | 111% | 
4 | O=C(c1c(Cl)cccc1Cl)N1CCC(Cc2ccc(F)cc2)CC1 [Compound 3] |  | 0% | 
5 | Cc1c(C(=O)NCc2cccs2)sc(=O)n1Cc1ccccc1 [Compound 4] |  | 6.2% | 
6 | Cc1c(C(=O)NCc2cccs2)sc(=O)n1Cc1ccccc1F [Compound 5] |  | 6.5% | 
7 | Cc1c(C(=O)NCc2ccco2)sc(=O)n1Cc1ccccc1F [Compound 7] |  | 59.1% | 
